Laboratory results: patent publication US20060252798A1, “Metal ion chelators and therapeutic use thereof” (priority 2003, published 2006)

Tests used:
[1] = Maximum tolerated dose in CD2F1 hybrid mice; format: in vivo; settings: CD2F1 mice, iv twice a day
Experimental: BALB/c and DBA/2 mice were obtained from Animal Resources Centre (University of New South Wales (UNSW), Sydney, Australia) and crossed to produce CD2F1 animals (all procedures used were approved by the Animal Ethics Committee, UNSW). Groups of eight female CD2F1 mice (8-10 weeks old) were fed and watered ad-libitum, and injected via the tail vein with compounds being studied in 30% propylene glycol in 0.9% sterile saline, twice a day, 6 h apart, 5 days/week for 2 weeks. The maximum tolerated dose (MTD) was defined as the dose at which 30% of a cohort either died or lost weight in excess of 10%.^19

M109 lung carcinoma = experiment: Inhibition of M109 lung carcinoma growth in vivo; parameters: species or system mouse; settings: 0.4 mg/kg iv twice daily for 5 days, day 12
Experimental: Inhibition of M109 Lung Cancer Cell Growth by Iron Chelators In Vivo Female CD2F1 mice aged 8-10 weeks old were sc implanted with 1×10^5 M109 cells. The tumour cells were passaged in CD2F1 mice by preparing a brei from the tumour and injecting it sc.^20 Dp44mT was dissolved in 30% (v/v) propylene glycol in saline and injected iv 4 days after tumour engraftment, twice daily for 5 days followed by a “rest period” of 2 days when the animal was not injected. On the twelfth day after tumour implantation, mice were sacrificed using methoxyfluorane and cardiac puncture performed. Blood counts and erythrocyte indices were measured using a Sysmex Blood Counter (Prince of Wales Hospital, Sydney, Australia). Mouse body weight changes during the treatment period were recorded. The tumours were weighed and fixed for histological examination. The experimental groups consisted of eight mice for the control and each treatment (Table 5).
As a relevant positive control, animals were administered Triapine® at its MTD (6 mg/kg). The tumour weight was measured on the twelfth day after the tumour cell implantation.

[2] = Mouse weight loss and haematological indices in M109-bearing mice; format: in vivo; settings: Mean ± SEM
Experimental: The tumour cells were passaged in CD2F1 mice by preparing a brei from the tumour and injecting it sc.^20 Dp44mT was dissolved in 30% (v/v) propylene glycol in saline and injected iv 4 days after tumour engraftment, twice daily for 5 days followed by a “rest period” of 2 days when the animal was not injected. On the twelfth day after tumour implantation, mice were sacrificed using methoxyfluorane and cardiac puncture performed. Blood counts and erythrocyte indices were measured using a Sysmex Blood Counter (Prince of Wales Hospital, Sydney, Australia). Mouse body weight changes during the treatment period were recorded. The tumours were weighed and fixed for histological examination. The experimental groups consisted of eight mice for the control and each treatment (Table 5).

caspase-8 = experiment: Caspase-8 activity in M109 cells (BD Apolert Caspase Assay Plate); format: cell-based, mouse; settings: 1 μM
Experimental: Cultured M109 cells were treated with or without Dp44mT (1 μM) for 0-48 h at 37° C. Cells were lysed^27 and caspase activities were determined using the BD Apolert™ Caspase Assay Plate (BD Biosciences, San Diego, Calif., USA). Cell-permeable pan-caspase-3, -8, and -9 inhibitors (BD Biosciences) were included as inhibitory controls.

[3] = system: holo-cytochrome c (h-cytc); experiment: Release of holo-cytochrome c from mitochondria into cytosol of M109 cells; format: cell-based, mouse; settings: 1 μM, 2 h exposure (FIG. 15A)
Experimental: Due to the importance of h-cytc release from the mitochondrion on apoptosis induction,^8 further studies investigated the effect of Dp44mT on this process (FIG. 15A). Preparation of cytosolic and mitochondrial fractions and western blotting were carried out using standard techniques.^27 There was very little h-cytc expression in the cytosolic fractions of control M109 cells (i.e., at 0 h), with the greatest amount of h-cytc being found in the mitochondrion at this time (FIG. 15A). […] The release of h-cytc into the cytosol plateaued after a 4 h incubation with Dp44mT and then decreased to that found in control cells after 24 and 48 h. This increase in cytosolic h-cytc correlated with the loss from the mitochondrion (FIG. 15A). The near complete disappearance of h-cytc from the cytosol at 24 and 48 h may be due to its release from cells or its degradation^28 (FIG. 15A).

Bcl-2 = experiment: Mitochondrial Bcl-2 protein level in M109 cells; format: cell-based, mouse; settings: 1 μM
Experimental: Considering the roles of Bcl-2 and Bax in the mitochondrial pathway of apoptosis and their role in h-cytc release, ^8,11,12 the effect of Dp44mT (1 μM) on the protein levels of these molecules was assessed (FIG. 15B).

[4] = system: SK-N-MC neuroepithelioma cells; experiment: 3H-leucine incorporation by SK-N-MC cells; format: cell-based, human; settings: 20 h incubation then 2 h label; Mean ± SD, 4 experiments
Experimental: (§1) After a 20 h incubation of the SK-N-MC cells with a selection of analogues, ^3H-thymidine, ^3H-leucine, or ^3H-uridine (1 μCi/ml) was added for 2 h at 37° C. The cells were detached from the 96 well plate using 1 mM EDTA in Ca(II)/Mg(II)-free PBS and collected and washed using a cell harvester (Tomtec Harvester 96, Linbrook, Queensland, Australia). Radioactivity was measured on a P-scintillation counter (LKB Wallace, Turku, Finland).

[5] = system: SK-N-MC neuroepithelioma cells; experiment: 3H-uridine incorporation by SK-N-MC cells; format: cell-based, human; settings: 20 h incubation then 2 h label; Mean ± SD, 3 experiments
Experimental: as §1

GADD45 and WAF1 mRNA = experiment: Northern blot of WAF1 and GADD45 mRNA expression in SK-N-MC cells; format: cell-based, human; settings: DFO 100 μM, other chelators 25 μM, 20 h at 37° C. (FIG. 7)
Experimental: FIG. 7. […] Northern blotting was performed using standard procedures (see Example 6).
Northern blot analysis was performed by isolating total RNA using the Total RNA Isolation Reagent (Advanced Biotechnologies Ltd, Surrey, United Kingdom). The membranes were hybridised with probes specific for human WAF1, GADD45, and β-actin. The WAF1 probe consisted of a 1 kb fragment from pSXV (ATCC; Cat. No. 79928). The GADD45 probe consisted of a 760 bp fragment from human GADD45 cDNA cloned into pHu145B2 (kindly supplied by Dr. Albert Fornace, National Cancer Institute, NIH, Maryland). The β-actin probe consisted of a 1.4 kb fragment from human β-actin cDNA cloned into pBluescript SK− (ATCC; Cat. No. 37997).

CN(C)C(=S)NN=C(c1ccccn1)c1ccccn1 [Dp44mT, di-2-pyridylketone 4,4-dimethyl-3-thiosemicarbazone]
maximum tolerated dose (MTD) [1]: 0.4 mg/kg | tumour weight (M109 lung carcinoma): 47 % of control | Body weight loss ([2]; Dp44mT 0.3 mg/kg): 1.3 ± 0.3 g | Haematocrit ([2]; Dp44mT 0.3 mg/kg): 0.40 ± 0.03 | Haemoglobin ([2]; Dp44mT 0.3 mg/kg): 13.3 ± 0.5 g/dL | Platelets ([2]; Dp44mT 0.3 mg/kg): 1019 ± 87 10^9/L | RBC ([2]; Dp44mT 0.3 mg/kg): 8.9 ± 0.4 10^12/L | WBC ([2]; Dp44mT 0.3 mg/kg): 4.2 ± 0.4 10^9/L | Body weight loss ([2]; Dp44mT 0.4 mg/kg): 1.1 ± 0.2 g | Haematocrit ([2]; Dp44mT 0.4 mg/kg): 0.40 ± 0.01 | Haemoglobin ([2]; Dp44mT 0.4 mg/kg): 11.8 ± 0.8 g/dL | Platelets ([2]; Dp44mT 0.4 mg/kg): 636 ± 88 10^9/L | RBC ([2]; Dp44mT 0.4 mg/kg): 8.0 ± 0.6 10^12/L | WBC ([2]; Dp44mT 0.4 mg/kg): 3.9 ± 0.6 10^9/L | caspase-8 activity (caspase-8; 12 h): 299 % of the control | caspase-8 activity (plateau) (caspase-8; after 24 h): 400-600 % of the control | h-cytc release from the mitochondrion [3]: h-cytc was found in the cytosolic fraction | Bcl-2 protein level (Bcl-2; 2 h): 69 % of the 0 h time point | Bcl-2 protein level (Bcl-2; 48 h): 37 % of the 0 h time point

CC(=O)N(O)CCCCCNC(=O)CCC(=O)N(O)CCCCCNC(=O)CCC(=O)N(O)CCCCCN [DFO, desferrioxamine]
3H-Leucine Incorporation [4]: 9 ± 1 % Control | 3H-Uridine Incorporation [5]: 34 ± 5 % Control | GADD45 and WAF1 mRNA expression (GADD45 and WAF1 mRNA): up-regulation
